Patent US7432397B2, “Imaging compounds” (Hammersmith Imanet Ltd., priority 2002, dated 2008)

Experiment: Metabolite analysis of plasma and brain tissue (SPE/HPLC)
Format: in vivo, rat
Details: for parent compound as share of the radioactivity in brain: rat brain; for percentage of radioactivity associated with parent: rat plasma
Protocol: Sixteen adult male Sprague-Dawley rats (body weight 250-320 g: mean±SD=288±25 g) were used in 5 separate experiments. Each rat was injected with ˜13 MBq Compound 1, at a specific activity of […], via a previously catheterised tail vein. The associated stable compound was 0.5±0.2 nmol/kg. Discrete samples of arterial blood were collected from 9 of the rats via a previously catheterised tail artery.
Plasma samples were injected directly onto a solid phase extraction (SPE) column (C18), with di-ammonium hydrogen phosphate (0.1 M) mobile phase, and the retained radioactivity subsequently injected onto a reverse phase HPLC column (300×7.8 mm i.d., p-Bondapak C18) with a mobile phase of methanol:0.1 M ammonium formate, […]. The eluates were monitored for radioactivity and absorbance at 254 nm. Brain tissues were assayed using the same methodology, excepting that the samples were homogenised and de-proteinated prior to injection onto the HPLC column.

CSc1cccc(N([11CH3])C(=N)Nc2cc(SC)ccc2Cl)c1 [Compound 1, (N-(2-chloro-5-(methylthio)phenyl)-N′-(3-methylthio)phenyl)-N′-[N-methyl-^11C]-methylguanidine]
parent compound as share of the radioactivity in brain (20 minutes after i.v. injection): approximately 95% | parent compound as share of the radioactivity in brain (70 minutes after i.v. injection): ~90% | percentage of radioactivity associated with parent (10 min after i.v. injection): ~50% | percentage of radioactivity associated with parent (90 min after i.v. injection): ~5% | metabolism and clearance from the plasma (rat, i.v.): rapid metabolism and clearance
